Test results published in patent US11485742B2, “2-azaspiro[3.4]octane derivatives as M4 agonists” (NOVARTIS AG, priority 2019, dated 2022).

Legend:
[1] = target: T1, human cloned CHRM2 receptor (Homo sapiens, UniProt P08172); assay: CHRM2 Ca++ Flux Assay (M2_CHO cells, agonist mode); type: cell-based; details: M2 CHO cells; for EC50: agonist mode, geometric mean if tested more than once, read-out: M2 FDSS EC50; for Emax / M2 FDSS PA %: Percent Activity (PA) measured to EC100 of Carbachol; for Emax: read-out: M2 FDSS PA %
T1 construct: expressed in transfected cells; host or cells: CHO-K1 (M2_CHO)
T1 sequence (P08172 1-466): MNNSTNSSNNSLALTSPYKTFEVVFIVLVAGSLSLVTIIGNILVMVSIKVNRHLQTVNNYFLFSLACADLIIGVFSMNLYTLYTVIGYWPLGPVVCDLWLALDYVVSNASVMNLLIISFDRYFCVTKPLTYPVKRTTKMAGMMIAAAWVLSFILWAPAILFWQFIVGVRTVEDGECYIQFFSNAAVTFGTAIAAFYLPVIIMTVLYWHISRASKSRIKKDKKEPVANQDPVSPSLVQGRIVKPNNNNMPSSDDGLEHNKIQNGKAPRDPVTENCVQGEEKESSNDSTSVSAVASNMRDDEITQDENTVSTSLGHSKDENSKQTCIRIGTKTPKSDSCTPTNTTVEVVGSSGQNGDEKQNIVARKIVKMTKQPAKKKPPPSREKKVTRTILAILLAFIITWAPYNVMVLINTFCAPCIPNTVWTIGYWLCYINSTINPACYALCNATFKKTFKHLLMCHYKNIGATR
Protocol: (§1) The above examples were characterized by measuring the intracellular mobilization of Ca^++ ions caused by signaling events mediated by the receptor. The Intra-cellular Calcium flux levels were captured by the highly sensitive Ca^++ indicator, Calcium Assay Kit (BD Biosciences; Catalog Number 640178. The fluorescent activity from all receptors were monitored by the fluorescent imager, FDSS 7000EX (Hamamatsu) over a span of 3 minutes. The change in Calcium flux was readily captured upon activation with the muscarinic orthosteric agonist, Carbachol.
CHO-K1 cells stably expressing the human cloned CHRM2 receptor (M2_CHO cells) were grown and maintained in a monolayer culture with F12/HAM (Life Technologies) supplemented with 10% Fetal Bovine Serum, 1×Pen-Strep, and 0.4 mg/mL Geneticin in a humidified atmosphere (5% CO2) at 37° C. The cultures were grown to 80-90% confluency in T150 flasks (Corning) and washed with 1×DPBS and lifted with 0.05% Trypsin (Life Technologies). The cells were then spun (1K rpm, 3 minutes) and frozen using Recovery Cell Culture Freezing Media (Gibco Technologies). Cells were stored in liquid nitrogen and thawed a day before the assay.
Prior to the day of the assay, stable M2 CHO cells were thawed and plated on Greiner 384 well TC treated plate at a density of 12K cells/well and kept overnight in a humidified atmosphere (5% CO2) at 37° C. The following day, the cells were loaded with Ca^++ dye (BD Biosciences) using Loading Buffer (HBSS +Ca/+Mg, 20 mM HEPES, 2.5 mM Probenecid) and placed back in cell incubator for a minimum of 1 hour and maximum of 2 hours. After incubation, the dye was replaced with Assay Buffer (HBSS −Ca/−Mg, 20 mM HEPES, 2.5 mM Probenecid) supplemented with 20 μM ATP (Sigma Aldrich) and kept at room temperature for 60 minutes prior before running on cell imager. The FDSS 7000EX (Hamamatsu) was used to acquire Ca^++ traces from cells in response to compound treatment and the data was used to generate dose response curves in agonist mode. All compounds were serially diluted in DMSO then prepared in Assay Buffer for Ca^−+ flux studies. The dose response curves were generated from the average of triplicate wells obtained from each data point and used a non-linear regression of four parameter dose response algorithm. The Percent Activity (PA) was measured to EC100 of Carbachol.
(§2) If an Example was tested more than once in an assay, then the values below represent the geometric mean of the results from each independent experiment.

[2] = target: T2, human cloned CHRM4 receptor (Homo sapiens, UniProt P08173); assay: CHRM4 Ca++ Flux Assay (M4_CHO cells, agonist mode); type: cell-based; details: for Emax / M4 FDSS PA %: Percent Activity (PA); for Emax: read-out: M4 FDSS PA %; for EC50: geometric mean if tested more than once, read-out: M4 FDSS EC50
T2 construct: expressed in transfected cells; host or cells: CHO-K1 (M4_CHO)
T2 sequence (P08173 1-479): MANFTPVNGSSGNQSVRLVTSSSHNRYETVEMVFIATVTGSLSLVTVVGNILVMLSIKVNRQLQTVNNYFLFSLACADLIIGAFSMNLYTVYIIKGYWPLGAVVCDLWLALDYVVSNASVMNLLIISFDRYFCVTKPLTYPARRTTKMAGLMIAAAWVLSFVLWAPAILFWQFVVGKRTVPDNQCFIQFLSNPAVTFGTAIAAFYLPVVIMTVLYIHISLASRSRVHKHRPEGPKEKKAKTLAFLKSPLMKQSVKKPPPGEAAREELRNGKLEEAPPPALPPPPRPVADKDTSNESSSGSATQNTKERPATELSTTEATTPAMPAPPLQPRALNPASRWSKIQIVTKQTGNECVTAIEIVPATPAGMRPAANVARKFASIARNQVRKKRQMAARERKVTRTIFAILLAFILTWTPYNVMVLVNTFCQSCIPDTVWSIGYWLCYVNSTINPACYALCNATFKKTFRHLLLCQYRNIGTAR
Protocol: as §1
CHO-K1 cells stably expressing the human cloned CHRM4 receptor (M4_CHO cells) were grown and maintained in a monolayer culture with F12/HAM (Life Technologies) supplemented with 10% Fetal Bovine Serum, 1X Pen-Strep, and 0.4 mg/mL Geneticin in a humidified atmosphere (5% CO2) at 37° C. The cultures were grown to 80-90% confluency in T150 flasks (Corning) and washed with 1×DPBS then lifted with 0.05% Trypsin (Life Technologies). The cells were harvested in growth media then spun (1K rpm, 3 minutes) and cryopreserved using Recovery Cell Culture Freezing Media (Gibco Technologies). Cells were stored in liquid nitrogen and thawed a day before the assay.
Prior to the day of the assay, stable M4_CHO cells were thawed and plated on 384 well black walled clear bottom TC treated plates (Greiner Cat #781091) at 12K cells/well using F12/HAM Media supplemented with 10% FBS (Life Technologies) and kept overnight in a humidified atmosphere (5% CO2) at 37° C. The next day, cells were loaded with 20 μL Ca^++ dye (BD Biosciences) using Loading Buffer (HBSS +Ca/+Mg, 20 mM HEPES, 2.5 mM Probenecid) and placed back in cell incubator for a minimum of 1 hour. After incubation, the dye was replaced with 45 μL Assay Buffer (HBSS −Ca/−Mg, 20 mM HEPES, 2.5 mM Probenecid) supplemented with 20 μM ATP (Sigma Aldrich) and kept at room temperature in the dark for 60 minutes before running on a cell imager. The FDSS 7000EX (Hamamatsu) was used to capture Ca^++ traces for a span of 3 minutes from cells treated with 11 point dose of compound in triplicate in order to generate dose response curves in agonist mode. All compounds were serially diluted in DMSO then prepared in Assay Buffer for Ca^++ flux studies. The dose response curves were generated from the average of triplicate wells obtained from each data point and used a non-linear regression of four parameter dose response algorithm. The Percent Activity (PA) was measured to EC100 of Carbachol.
as §2

Row | EC50 [1] | Emax [1] | Emax [2] | EC50 [2] | Structure (SMILES) | M2 FDSS PA % [1] | M4 FDSS PA % [2]
1 | 0.492 µM | 39% | 84% | 10 nM | Fc1ccc(OC[C@@H]2CCOC2)c(C2CCN([C@@H]3COC4(C3)CN(c3nnco3)C4)CC2)c1 [Example 1B, (S)-7-(4-(5-fluoro-2-(((R)-tetrahydrofuran-3-yl)methoxy)phenyl)piperidin-1-yl)-2-(1,3,4-oxadiazol-2-yl)-5-oxa-2-azaspiro[3.4]octane] | – | –
2 | 3.66 µM | 16% | 82% | 185 nM | c1ccc(C2CCN([C@@H]3COC4(C3)CN(c3nnco3)C4)CC2)c(CC2CCOCC2)c1 [Example 3G, (S)-2-(1,3,4-oxadiazol-2-yl)-7-(4-(2-((tetrahydro-2H-pyran-4-yl)methyl)phenyl)piperidin-1-yl)-5-oxa-2-azaspiro[3.4]octane] | – | –
3 | > 25 µM | 0% | 74% | 93 nM | COc1ccccc1C1CCN([C@@H]2COC3(C2)CN(c2ncco2)C3)CC1 [Example 4N, (S)-7-(4-(2-methoxyphenyl)piperidin-1-yl)-2-(oxazol-2-yl)-5-oxa-2-azaspiro[3.4]octane] | – | –
4 | 0.607 µM | 50% | 80% | 21 nM | Fc1ccc(O[C@@H]2CCOC2)c(C2CCN([C@@H]3COC4(C3)CN(c3nnco3)C4)CC2)c1 [Example 1D, (S)-7-(4-(5-fluoro-2-(((R)-tetrahydrofuran-3-yl)oxy)phenyl)piperidin-1-yl)-2-(1,3,4-oxadiazol-2-yl)-5-oxa-2-azaspiro[3.4]octane] | – | –

Further lines, the compound ahead of its results:

Row | Structure (SMILES) | EC50 [1] | Emax [1] | Emax [2] | EC50 [2] | M2 FDSS PA % [1] | M4 FDSS PA % [2]
5 | Fc1cc(OCC2COC2)c(C2CCN([C@@H]3COC4(C3)CN(c3ncco3)C4)CC2)cc1F [Example 4O, (S)-7-(4-(4,5-difluoro-2-(oxetan-3-ylmethoxy)phenyl)piperidin-1-yl)-2-(oxazol-2-yl)-5-oxa-2-azaspiro[3.4]octane] | 12.7 µM | 31% | 58% | 7 nM | – | –
6 | Fc1cc(F)c(OC2CC3(COC3)C2)c(C2CCN([C@@H]3COC4(C3)CN(c3nnco3)C4)CC2)c1 [Example 2AA, (S)-7-(4-(2-((2-oxaspiro[3.3]heptan-6-yl)oxy)-3,5-difluorophenyl)piperidin-1-yl)-2-(1,3,4-oxadiazol-2-yl)-5-oxa-2-azaspiro[3.4]octane] | 7.98 µM | 22% | 16% | 210 nM | – | –
7 | Fc1ccc(O[C@@H]2CCOC2)c(C2CCN([C@@H]3COC4(C3)CN(c3ncco3)C4)CC2)c1 [Example 4D, (S)-7-(4-(5-fluoro-2-(((R)-tetrahydrofuran-3-yl)oxy)phenyl)piperidin-1-yl)-2-(oxazol-2-yl)-5-oxa-2-azaspiro[3.4]octane] | > 25 µM | 17% | 77% | 7 nM | – | –
8 | COC(C)(C)CCOc1ccc(F)cc1C1CCN([C@@H]2COC3(C2)CN(c2nncs2)C3)CC1 [Example 5N, (S)-7-(4-(5-fluoro-2-(3-methoxy-3-methylbutoxy)phenyl)piperidin-1-yl)-2-(1,3,4-thiadiazol-2-yl)-5-oxa-2-azaspiro[3.4]octane] | > 25 µM | 38% | 61% | 68 nM | – | –
9 | Fc1ccc(OC[C@H]2CCO2)c(C2CCN([C@@H]3COC4(C3)CN(c3nncs3)C4)CC2)c1.O=C(O)C(F)(F)F (single isomer, unassigned) [Example 2C, (S)-7-(4-(5-fluoro-2-(((R)-oxetan-2-yl)methoxy)phenyl)piperidin-1-yl)-2-(1,3,4-thiadiazol-2-yl)-5-oxa-2-azaspiro[3.4]octane trifluoroacetate or (S)-7-(4-(5-fluoro-2-(((S)-oxetan-2-yl)methoxy)phenyl)piperidin-1-yl)-2-(1,3,4-thiadiazol-2-yl)-5-oxa-2-azaspiro[3.4]octane trifluoroacetate] | 0.321 µM | – | – | 94 nM | 39% | 72%
10 | COc1cc(F)ccc1C1CCN([C@@H]2COC3(C2)CN(c2nncs2)C3)CC1 [Example 5T, (S)-7-(4-(4-fluoro-2-methoxyphenyl)piperidin-1-yl)-2-(1,3,4-thiadiazol-2-yl)-5-oxa-2-azaspiro[3.4]octane] | 20 µM | 35% | 61% | 208 nM | – | –
11 | Fc1ccc(OC[C@H]2COCCO2)c(C2CCN([C@@H]3COC4(C3)CN(c3nncs3)C4)CC2)c1 [Example 5K, (S)-7-(4-(2-(((R)-1,4-dioxan-2-yl)methoxy)-5-fluorophenyl)piperidin-1-yl)-2-(1,3,4-thiadiazol-2-yl)-5-oxa-2-azaspiro[3.4]octane] | 0.453 µM | 32% | 87% | 31 nM | – | –
12 | Fc1ccc(OC[C@H]2CCO2)c(C2CCN([C@@H]3COC4(C3)CN(c3nncs3)C4)CC2)c1.O=C(O)C(F)(F)F (single isomer, unassigned) [Example 2D, (S)-7-(4-(5-fluoro-2-(((R)-oxetan-2-yl)methoxy)phenyl)piperidin-1-yl)-2-(1,3,4-thiadiazol-2-yl)-5-oxa-2-azaspiro[3.4]octane trifluoroacetate or (S)-7-(4-(5-fluoro-2-(((S)-oxetan-2-yl)methoxy)phenyl)piperidin-1-yl)-2-(1,3,4-thiadiazol-2-yl)-5-oxa-2-azaspiro[3.4]octane trifluoroacetate] | 0.446 µM | – | – | 20 nM | 50% | 72%
